Assay results from patent US20250282723A1, “AMYLOID TARGETING AGENTS AND METHODS OF USING THE SAME” (The Regents of the University of California, priority 2021, published 2025).

Columns and labels:
[1] = Fluorescence excitation and emission spectra of free (unbound) probes in aqueous solution; format: physicochemical; settings: for Em (λmax) (Free) / Ex (λmax) (Free): free probe in aqueous solution; for fluorescence intensity of the free probe in aqueous solution compared to ARCAM (1): free probes in aqueous solution, FIG. 2; for Emmax (Free): probes of FIG. 14, free
Experimental: Estimation of fluorescence enhancement of probes when bound versus unbound to aggregated Aβ (1-42) peptides. Aggregated Aβ (1-42) at a final concentration of 5 μM (based on the molecular weight of monomer) was mixed with each fluorescent probe at a final concentration of 4 μM in 5% DMSO in nanopure water. The solution (80 μL) was transferred to a black opaque 96 well plate and the fluorescence was read using a microplate reader. For all probes, the relative fluorescence enhancement of the bound versus unbound state was estimated by comparing the intensity at λmax of the amyloid-bound state.
(§1) Aggregated αS or Aβ(1-42) at a final concentration of 5 μM (based on the molecular weight of monomer) was mixed with each fluorescent probe at a final concentration of 4 μM in 5% DMSO in nanopure water. The solution (80 μL total volume) was transferred to a black opaque 96 well plate and the fluorescence excitation and emission were read using a microplate reader. For emission fluorescence enhancement, the relative fluorescence enhancement of the bound versus unbound state was estimated by comparing the fluorescence intensity at λmax of the amyloid-bound state.

aggregated αS = molecular target: T1, aggregated αS (Homo sapiens, UniProt P37840); assay: Fluorescence emission and fluorescence enhancement of probes bound versus unbound to aggregated αS; format: binding; settings: probes of FIG. 14; for Emmax (with αS) / FI with αS: aggregated αS 5 μM, probe 4 μM; for Emmax (with αS): 5% DMSO in nanopure water; for FI with αS: fold increase of fluorescence, bound vs unbound; for FI αS/Aβ: selectivity of fluorescence response to αS fibrils over Aβ fibrils
T1 construct: made in house; host or cells: E. coli BL21 (plasmid pET5α aSynWT)
Experimental: Expression and purification of recombinant α-synuclein was followed as reported previously.^32 Briefly, α-synuclein was purified from BL21 E. coli as described: A starter culture of transformed bacteria (pET5α aSynWT) (LB broth with ampicillin [final concentration: 100 μg/mL]) was incubated overnight. Following incubation, 25 mL of the started culture was added to a 500 mL mixture of LB broth and ampicillin. Protein expression was induced by addition of IPTG [0.119 g/500 mL] when an OD600 between 0.5-0.8 was achieved. After 4 h, flasks were centrifuged (5,000×g for 20 min) and the supernatant was removed. The pellets were then re-suspended in 20 mM Tris, 25 mM NaCl, 1 mM EDTA, pH 8.0, transferred into a flask, boiled for 1-2 minutes in a microwave, and boiled in a water bath (90° C.) for 30 minutes. Samples were then centrifuged (18,000×g for 30 min) and the supernatant was collected and filtered through a 0.2 μm filter. α-synuclein protein was further purified using 2×5 ml HiTrapQ HP anion exchange columns (GE, #17-1153-01) followed by Size Exclusion Column (Superdex 200, #28-9893-35). Pure α-synuclein determined by Coomassie and western blot were lyophilized and stored at −80° C. until use.
Aggregation of purified α-synuclein was followed as reported previously.^33 The lyophilized powder was dissolved to a final concentration of 100 μM in sodium phosphate buffer (50 mM, pH 7.4) with 0.1 mM EDTA and 0.02% sodium azide (w/v) and was aggregated at 37° C. with shaking at 500 rpm for 3 weeks. Fibrillization was confirmed by SDS-PAGE gel and standard ThT assay.
as §1

[2] = Quantum yield measurements; format: physicochemical; settings: 5% DMSO/H2O, reference standard Coumarin 30; for Quantum Yield (Φ): probes of FIG. 14
Experimental: Quantum Yield Measurements. To determine the quantum yield (QY) of compounds ARCAM, 1-5, a procedure that was similar to a previously reported protocol for estimating the QY for Thioflavin T^24 was used. Briefly, the absorbance spectrum of each probe (in 5% Dimethyl Sulfoxide (DMSO)/water (H2O)), in addition to the absorbance spectrum for the reference standard (Coumarin 30, QY=0.67)^27 was measured. The wavelength at which the two normalized absorbance curves intersected was used as the excitation wavelength. A serial dilution of each probe and the standard was made with absorbance values at the excitation wavelength in the range of 0 to 0.1 absorbance units. At each concentration, the emission spectra for each probe and the standard were measured. Technical triplicates of these experiments were performed for all probes, and the averages were recorded. From these emission spectra, the area under the curve was calculated and plotted against the absorbance at each concentration (FIGS. 3-7). The data were fitted to Equation 1 to obtain estimates for QY: […]
where QY represents the quantum yield, A represents the absorbance, E represents the integrated fluorescence emission, η represents the refractive index of the solvent^28,29, and the ‘p’ and ‘r’ subscripts signify the probe or the reference compound, respectively.
Quantum Yield ((D) for each probe was measured as described previously.^31 Briefly, we measured the absorbance spectrum of each probe in 5% DMSO/H2O, as well as the absorbance spectrum for the reference standard (Coumarin 30, =0.67 in Acetonitrile). Both normalized absorbance curves were plotted, and the wavelength of intersection was used as the excitation wavelength. A serial dilution was made for each probe and the standard with absorbance values at the excitation wavelength varying between of 0 to 0.1 absorbance units. At each concentration, the emission spectra for each probe and the standard were measured. Each experiment was repeated in technical triplicates for all probes, and the averages were recorded. The integrated fluorescence emission was calculated and plotted against the absorbance at each concentration. The data were fitted to Equation Si to obtain estimates for Φ: […]
where Φ represents the quantum yield, A represents the absorbance, E represents the integrated fluorescence emission, η represents the refractive index of the solvent, and the ‘p’ and ‘r’ subscripts signify the probe or the reference compound, respectively.

Row | Structure (SMILES) | Em (λmax) (Free) [1] [nm] | Ex (λmax) (Free) [1] [nm] | fluorescence intensity of the free probe in aqueous solution compared to ARCAM (1) [1] | Emmax (Free) [1] [nm] | Emmax (with αS) (aggregated αS) [nm] | FI with αS (aggregated αS) | FI αS/Aβ (aggregated αS) | QY [2] | Quantum Yield (Φ) [2]
1 | COCCOCCOCCNC(=O)/C(C#N)=C/c1ccc2cc(N3CCCCC3C)ccc2c1 (racemic) [Compound 4, (E)-2-cyano-N-(2-(2-(2-methoxyethoxy)ethoxy)ethyl)-3-(6-(2-methylpiperidin-1-yl)naphthalen-2-yl)acrylamide] | 583 ± 1 | 431 ± 4 | lower but similar in magnitude to ARCAM (1) | 583 | 531 | 3.8 ± 0.4 | 2.0 | 0.0062 ± 0.0003 | 0.0062
2 | COCCOCCOCCNC(=O)C(C#N)=Cc1ccc2cc(N3CCCCC3)ccc2c1 (mixture of isomers) [Compound 1] | 590 ± 4 | 409 ± 11 | – | 590 | 539 | 3.0 ± 0.5 | 1.4 | 0.0066 ± 0.0023 | 0.0066
3 | CCC1CCCCN1c1ccc2cc(/C=C(\C#N)C(=O)NCCOCCOCCOC)ccc2c1 (racemic) [Compound 5, (E)-2-cyano-3-(6-(2-ethylpiperidin-1-yl)naphthalen-2-yl)-N-(2-(2-(2-methoxyethoxy)ethoxy)ethyl)acrylamide] | 575 ± 6 | 445 ± 1 | lower but similar in magnitude to ARCAM (1) | 575 | 534 | 4.6 ± 0.7 | 3.8 | 0.0055 ± 0.0010 | 0.0055
